# Experimental data as given in US12545708B2, “Peptide for treatment of corona virus infection disease COVID-19 and use thereof” (DAEGU GYEONGBUK INSTITUTE OF SCIENCE AND TECHNOLOGY, priority 2020, dated 2026).
# pKd: −log10 of the molar value.
# Assays:
# [1] = molecular target: RBD (Severe acute respiratory syndrome coronavirus 2, UniProt P0DTC2); test: biochemical; type: binding, SARS-CoV2
# [2] = tested on: HEK293T cell line
# [3] = tested on: HepG2 cell line
# [4] = tested on: HMC-3 cell line
# [5] = tested on: MRC-5 cell line
compound,measurement,setting,value
CC[C@H](C)[C@H](NC(=O)[C@H](CC(N)=O)NC(=O)[C@@H](NC(=O)[C@H](CC(N)=O)NC(=O)[C@H](Cc1ccc(O)cc1)NC(=O)[C@@H](NC(=O)[C@H](CC(N)=O)NC(=O)[C@H](CC(=O)O)NC(=O)[C@H](C)NC(=O)[C@H](CC(C)C)NC(=O)[C@H](CCC(N)=O)NC(=O)[C@H](CO)NC(=O)[C@H](CCCCN)NC(=O)[C@@H](N)CCSC)C(C)C)[C@@H](C)O)C(=O)N[C@H](C(=O)N[C@@H](CCCCN)C(=O)N[C@@H](CCC(=O)O)C(=O)N[C@@H](CC(N)=O)C(=O)N[C@H](C(=O)N[C@@H](CCC(N)=O)C(=O)N[C@@H](CC(N)=O)C(=O)N[C@@H](CCSC)C(=O)N[C@@H](CC(N)=O)C(=O)N[C@@H](CCC(=O)O)C(=O)N[C@@H](CCC(=O)O)C(=O)N[C@@H](CCC(N)=O)C(=O)N[C@@H](C)C(=O)N[C@@H](CCCCN)C(=O)N[C@H](C(=O)N[C@@H](Cc1ccccc1)C(=O)N[C@@H](CC(C)C)C(=O)N[C@@H](CC(=O)O)C(=O)N[C@@H](CCCCN)C(=O)N[C@@H](Cc1ccccc1)C(=O)N[C@@H](CC(N)=O)C(=O)N[C@@H](Cc1c[nH]cn1)C(=O)N[C@@H](CCC(=O)O)C(=O)N[C@@H](C)C(=O)N[C@@H](CCC(=O)O)C(=O)N[C@@H](CC(=O)O)C(=O)N[C@@H](CC(C)C)C(=O)N[C@@H](Cc1ccccc1)C(=O)N[C@@H](Cc1ccc(O)cc1)C(=O)N[C@@H](CCC(N)=O)C(=O)N[C@@H](CO)C(=O)N[C@@H](CO)C(=O)NCC(=O)N[C@@H](CC(C)C)C(=O)NCC(=O)N[C@@H](CCCCN)C(=O)NCC(=O)N[C@@H](CC(=O)O)C(=O)N[C@@H](Cc1ccccc1)C(=O)N[C@@H](CCCNC(=N)N)C(=O)O)[C@@H](C)O)C(C)C)[C@@H](C)O [PEP9],pKd,[1],7.46
same,change in cell viability,[2],no significant change
same,change in cell viability,[3],no significant change
same,change in cell viability,[4],no significant change
same,decrease in the cell viability,[4],about 10%
same,change in cell viability,[5],no significant change
